From ChEMBL document CHEMBL1201862, “PubChem BioAssay data set” (2004)
Activity calls are given as the source filed them.

Columns and labels:
[1] = Luminescence Cell-Based Dose Retest to Confirm Inhibitors of Cancer Stem Cells. [Related pubchem assays (depositor defined):AID2717, AID2721]; assay type: functional; conditions: Homo sapiens
cells [2] = assay type: functional, cell-based
[3] = biological target: T1, Nuclear receptor subfamily 0 group B member 1 (Homo sapiens, UniProt P51843); assay type: functional, cell-based;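 also: HEK293T cells transfected with SF-1 and DAX-1 plus StAR promoter luciferase reporter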
T1 sequence (P51843 whole entry): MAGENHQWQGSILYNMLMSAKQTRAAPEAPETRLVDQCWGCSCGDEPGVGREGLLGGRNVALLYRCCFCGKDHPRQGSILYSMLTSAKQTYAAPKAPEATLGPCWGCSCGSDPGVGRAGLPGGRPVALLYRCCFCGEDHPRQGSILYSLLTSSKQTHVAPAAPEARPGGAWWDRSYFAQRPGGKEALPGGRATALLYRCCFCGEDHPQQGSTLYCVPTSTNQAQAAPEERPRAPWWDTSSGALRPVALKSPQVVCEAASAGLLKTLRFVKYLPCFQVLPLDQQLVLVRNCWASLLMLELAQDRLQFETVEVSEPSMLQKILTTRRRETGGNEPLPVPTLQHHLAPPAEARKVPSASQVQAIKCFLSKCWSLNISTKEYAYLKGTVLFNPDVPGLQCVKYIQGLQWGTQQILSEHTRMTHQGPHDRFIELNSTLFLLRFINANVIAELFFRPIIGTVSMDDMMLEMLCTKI

[4] = biological target: T2, Fructose-bisphosphate aldolase (Mycobacterium tuberculosis, UniProt P9WQA3); experiment: Fluorescence-based biochemical high throughput dose response assay for inhibitors of the fructose-bisphosphate aldolase (FBA) of M. tuberculosis.; assay type: functional
T2 sequence (P9WQA3 whole entry): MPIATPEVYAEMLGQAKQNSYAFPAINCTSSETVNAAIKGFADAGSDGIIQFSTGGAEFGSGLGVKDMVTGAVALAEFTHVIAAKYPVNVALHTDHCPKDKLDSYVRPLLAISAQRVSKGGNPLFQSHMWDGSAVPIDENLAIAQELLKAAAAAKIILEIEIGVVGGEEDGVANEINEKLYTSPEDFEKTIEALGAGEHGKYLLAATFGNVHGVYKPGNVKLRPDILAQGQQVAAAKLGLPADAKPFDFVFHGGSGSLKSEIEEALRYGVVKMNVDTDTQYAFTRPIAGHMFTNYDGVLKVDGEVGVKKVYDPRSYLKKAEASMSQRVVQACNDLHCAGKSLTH

Vero = experiment: Vero cell toxicity, dose response, cytotoxicity control, plate reader, cherry-pick samples (AID 687020); assay type: functional, cell-based; conditions: Chlorocebus sabaeus
[5] = StAR promoter reporter inhibition counter-screen, dose response, counter-screen for LRH-1 inverse agonist project, cell-based, luminescence, luciferase reporter (AID 651969); assay type: functional
[6] = biological target: Nuclear receptor subfamily 5 group A member 2 (Homo sapiens, UniProt O00482); assay type: functional, cell-based;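 also: HEK293T cells transfected with LRH-1 and a StAR promoter luciferase reporter; potency for inhibitors that lower LRH-1 driven reporter light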
Sequence of Nuclear receptor subfamily 5 group A member 2 (O00482 whole entry): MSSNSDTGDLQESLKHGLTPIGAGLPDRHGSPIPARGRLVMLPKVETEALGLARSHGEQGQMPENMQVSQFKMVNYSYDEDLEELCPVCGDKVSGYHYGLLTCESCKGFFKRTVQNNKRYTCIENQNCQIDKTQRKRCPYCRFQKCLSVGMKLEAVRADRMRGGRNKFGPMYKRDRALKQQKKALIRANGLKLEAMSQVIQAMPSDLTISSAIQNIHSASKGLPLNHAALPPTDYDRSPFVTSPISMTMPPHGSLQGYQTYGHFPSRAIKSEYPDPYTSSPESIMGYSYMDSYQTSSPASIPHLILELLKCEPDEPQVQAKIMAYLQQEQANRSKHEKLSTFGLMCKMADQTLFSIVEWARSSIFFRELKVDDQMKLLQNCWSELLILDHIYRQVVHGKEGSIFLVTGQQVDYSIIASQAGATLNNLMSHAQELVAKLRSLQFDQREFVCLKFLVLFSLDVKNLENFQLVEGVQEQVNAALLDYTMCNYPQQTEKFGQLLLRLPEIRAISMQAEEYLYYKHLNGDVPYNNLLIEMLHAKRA

Steroidogenic factor 1 = Steroidogenic factor 1 (Homo sapiens, UniProt Q13285); experiment: Counterscreen for inverse agonists of the liver receptor homolog-1 (LRH-1; NR5A2): Luminescence-based cell-based high throughput dose response assay to identify inverse agonists of the Steroidogenic Factor 1 Nuclear Receptor (SF1; NR5A1).; assay type: functional
Sequence of Steroidogenic factor 1 (Q13285 whole entry): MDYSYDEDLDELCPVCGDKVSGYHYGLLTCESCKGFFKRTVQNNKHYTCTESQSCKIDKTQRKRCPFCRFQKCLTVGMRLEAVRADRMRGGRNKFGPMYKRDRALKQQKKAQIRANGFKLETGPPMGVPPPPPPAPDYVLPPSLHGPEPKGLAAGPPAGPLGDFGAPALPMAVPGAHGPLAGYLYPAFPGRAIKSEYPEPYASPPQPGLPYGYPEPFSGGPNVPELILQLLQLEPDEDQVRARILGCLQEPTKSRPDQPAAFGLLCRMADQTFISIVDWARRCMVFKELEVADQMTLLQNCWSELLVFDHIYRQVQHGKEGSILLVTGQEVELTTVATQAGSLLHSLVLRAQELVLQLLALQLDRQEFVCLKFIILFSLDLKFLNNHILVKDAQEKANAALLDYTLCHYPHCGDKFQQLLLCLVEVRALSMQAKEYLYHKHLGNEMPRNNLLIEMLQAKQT

[7] = HEp-2 cell cytotoxicity, dose response, cytotoxicity control for RSV inhibitor project, HTS (AID 2410); assay type: functional; conditions: human respiratory syncytial virus
[8] = growth suppression of PTEN-null colon cells, dose response, cell-based, HCT116 PTEN knockout (AID 1047); assay type: functional;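 also: HCT116 colon tumor cells with PTEN knocked out; cells exposed to compound for 60 hours before readout; potency for loss of cell viability measured by luminescence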
Cytochrome P450 2C9 = Cytochrome P450 2C9 (Homo sapiens, UniProt P11712)
Sequence of Cytochrome P450 2C9 (P11712 whole entry, the tested form may be a part): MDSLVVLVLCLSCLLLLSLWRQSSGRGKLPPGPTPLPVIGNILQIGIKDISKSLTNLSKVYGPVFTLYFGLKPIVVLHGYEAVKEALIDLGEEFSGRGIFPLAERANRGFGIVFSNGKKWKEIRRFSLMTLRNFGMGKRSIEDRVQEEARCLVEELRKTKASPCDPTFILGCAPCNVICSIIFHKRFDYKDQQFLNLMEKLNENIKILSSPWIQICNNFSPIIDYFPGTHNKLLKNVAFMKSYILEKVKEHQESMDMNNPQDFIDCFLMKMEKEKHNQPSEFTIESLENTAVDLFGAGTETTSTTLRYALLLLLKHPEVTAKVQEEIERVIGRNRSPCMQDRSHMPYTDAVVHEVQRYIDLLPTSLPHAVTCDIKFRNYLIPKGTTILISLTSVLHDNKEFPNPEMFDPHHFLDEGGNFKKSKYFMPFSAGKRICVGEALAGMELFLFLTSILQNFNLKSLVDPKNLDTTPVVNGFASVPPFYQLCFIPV

[9] = biological target: T3, Sentrin-specific protease 1 (Homo sapiens, UniProt Q9P0U3); experiment: Dose response confirmation of small molecule inhibitors of the catalytic domain of the SUMO protease, SENP1 in a FRET assay.; assay type: functional; conditions: read-out: IC50_Mean
T3 sequence (Q9P0U3 whole entry): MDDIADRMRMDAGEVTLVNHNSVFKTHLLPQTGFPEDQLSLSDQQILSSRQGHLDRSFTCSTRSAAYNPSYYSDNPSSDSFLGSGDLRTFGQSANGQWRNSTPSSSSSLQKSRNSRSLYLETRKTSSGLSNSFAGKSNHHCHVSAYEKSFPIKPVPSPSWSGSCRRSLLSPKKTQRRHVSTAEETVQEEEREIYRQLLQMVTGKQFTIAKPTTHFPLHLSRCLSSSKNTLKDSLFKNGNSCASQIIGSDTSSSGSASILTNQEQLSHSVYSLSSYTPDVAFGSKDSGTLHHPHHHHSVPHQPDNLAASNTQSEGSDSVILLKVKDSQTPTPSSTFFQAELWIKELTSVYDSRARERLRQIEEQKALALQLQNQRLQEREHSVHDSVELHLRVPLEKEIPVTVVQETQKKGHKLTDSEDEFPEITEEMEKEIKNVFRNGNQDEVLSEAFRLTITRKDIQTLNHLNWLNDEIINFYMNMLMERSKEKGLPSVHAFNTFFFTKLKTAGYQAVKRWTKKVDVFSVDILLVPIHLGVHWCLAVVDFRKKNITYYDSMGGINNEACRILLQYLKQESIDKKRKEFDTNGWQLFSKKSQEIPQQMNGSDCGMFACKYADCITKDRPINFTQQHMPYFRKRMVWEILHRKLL

Galanin receptor type 3 = biological target: T4, Galanin receptor type 3 (Homo sapiens, UniProt O60755); experiment: Fluorescence-based cell-based primary high throughput dose response assay to identify antagonists of the Galanin Receptor 3 (GalR3).; assay type: functional
T4 sequence (O60755 whole entry): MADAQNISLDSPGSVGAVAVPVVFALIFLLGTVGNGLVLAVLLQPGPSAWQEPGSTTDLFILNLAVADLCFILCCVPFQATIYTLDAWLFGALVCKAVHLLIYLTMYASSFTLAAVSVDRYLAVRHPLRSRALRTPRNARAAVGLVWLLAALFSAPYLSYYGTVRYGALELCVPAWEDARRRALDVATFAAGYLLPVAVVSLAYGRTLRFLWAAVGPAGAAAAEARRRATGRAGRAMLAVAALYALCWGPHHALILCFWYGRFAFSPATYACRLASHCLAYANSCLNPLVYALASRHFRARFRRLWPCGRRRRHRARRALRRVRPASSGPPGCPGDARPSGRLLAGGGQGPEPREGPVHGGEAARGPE

cells [10] = assay type: functional, cell-based; conditions: HEK-CNG
[11] = control 3'UTR Renilla luciferase suppression, dose response, counter-screen for Shn3 inhibitor project, cell-based, Clone20-Shn3RL, cherry-picked (AID 624133); assay type: functional
[12] = Shn3 3'UTR reporter inhibitors, dose response, cell-based, Clone20 osteoblasts, firefly luciferase, cherry-picked (AID 624132); assay type: functional;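 also: firefly luciferase luminescence from reporter carrying the Shn3 3'UTR in osteoblasts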
[13] = HepG2 cell cytotoxicity, dose response, cytotoxicity control for Shn3 inhibitor project, CellTiter-Glo, cherry-picked (AID 624134); assay type: functional, cell-based
[14] = biological target: Photoreceptor-specific nuclear receptor (Homo sapiens, UniProt Q9Y5X4); assay type: functional, cell-based;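 also: CHO-S cells with Gal4-NCOR and VP16-NR2E3 two-hybrid luciferase reporter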
Sequence of Photoreceptor-specific nuclear receptor (Q9Y5X4 whole entry, the tested form may be a part): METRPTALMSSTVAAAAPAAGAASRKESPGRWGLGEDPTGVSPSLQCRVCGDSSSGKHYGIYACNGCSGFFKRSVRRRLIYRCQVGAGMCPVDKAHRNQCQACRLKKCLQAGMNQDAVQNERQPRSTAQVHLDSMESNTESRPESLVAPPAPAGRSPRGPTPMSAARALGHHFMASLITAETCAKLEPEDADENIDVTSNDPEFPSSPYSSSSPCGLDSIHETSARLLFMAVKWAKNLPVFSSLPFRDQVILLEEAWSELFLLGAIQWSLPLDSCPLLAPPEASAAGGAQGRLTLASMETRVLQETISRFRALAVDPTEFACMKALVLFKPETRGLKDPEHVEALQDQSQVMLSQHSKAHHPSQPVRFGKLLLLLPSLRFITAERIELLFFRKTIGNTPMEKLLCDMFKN

[15] = biological target: T5, High affinity choline transporter 1 (Homo sapiens, UniProt Q9GZV3); experiment: CHT inhibitors, dose response, cell-based, 10-point CRC, membrane potential dye (AID 588401); assay type: functional;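 also: membrane potential dye fluorescence of choline-evoked depolarization via CHT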
T5 sequence (Q9GZV3 whole entry): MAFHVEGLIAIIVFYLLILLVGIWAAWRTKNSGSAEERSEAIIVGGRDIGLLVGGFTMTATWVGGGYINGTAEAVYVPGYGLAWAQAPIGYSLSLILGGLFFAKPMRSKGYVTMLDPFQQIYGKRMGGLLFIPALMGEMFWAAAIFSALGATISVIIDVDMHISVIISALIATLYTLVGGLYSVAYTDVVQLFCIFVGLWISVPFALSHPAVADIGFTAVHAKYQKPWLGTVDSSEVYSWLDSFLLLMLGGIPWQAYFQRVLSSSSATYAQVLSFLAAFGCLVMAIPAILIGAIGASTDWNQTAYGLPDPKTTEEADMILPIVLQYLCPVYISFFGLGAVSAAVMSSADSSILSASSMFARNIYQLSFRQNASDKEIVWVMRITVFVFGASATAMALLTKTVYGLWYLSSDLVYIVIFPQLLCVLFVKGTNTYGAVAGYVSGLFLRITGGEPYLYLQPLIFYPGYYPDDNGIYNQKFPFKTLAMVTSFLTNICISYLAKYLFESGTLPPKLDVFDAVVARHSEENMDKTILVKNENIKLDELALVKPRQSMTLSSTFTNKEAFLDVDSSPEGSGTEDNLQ

[16] = biological target: T5, High affinity choline transporter 1; experiment: CHT inhibitors, dose response, cell-based, 5-point CRC, membrane potential dye (AID 504840); assay type: functional
CAAX prenyl protease 2 = biological target: T6, CAAX prenyl protease 2 (Saccharomyces cerevisiae S288c, UniProt Q03530); assay type: biochemical
T6 sequence (Q03530 whole entry): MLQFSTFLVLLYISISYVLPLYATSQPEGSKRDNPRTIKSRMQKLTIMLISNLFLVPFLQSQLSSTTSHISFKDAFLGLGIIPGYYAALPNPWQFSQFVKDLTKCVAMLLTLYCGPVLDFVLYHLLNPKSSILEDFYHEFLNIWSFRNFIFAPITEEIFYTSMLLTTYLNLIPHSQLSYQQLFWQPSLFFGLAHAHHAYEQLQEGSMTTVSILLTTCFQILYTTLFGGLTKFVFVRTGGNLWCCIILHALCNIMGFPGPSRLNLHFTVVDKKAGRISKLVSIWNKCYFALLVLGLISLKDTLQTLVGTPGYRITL

[17] = biological target: T7, Ubiquitin-conjugating enzyme E2 N (Homo sapiens, UniProt P61088); assay type: functional;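 also: Dose-response confirmation in a TR-FRET assay detecting UBC13-driven polyubiquitin chain formation, inhibition measured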
T7 sequence (P61088 whole entry): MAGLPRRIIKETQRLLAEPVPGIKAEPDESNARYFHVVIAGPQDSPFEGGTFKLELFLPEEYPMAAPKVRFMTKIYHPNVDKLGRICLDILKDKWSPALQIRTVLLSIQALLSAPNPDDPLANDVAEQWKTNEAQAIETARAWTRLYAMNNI

P388/ADR = experiment: cells; assay type: functional; conditions: Mus musculus
P388 = experiment: cells; assay type: functional; conditions: Mus musculus
SN12K1 = experiment: cells; assay type: functional; conditions: Homo sapiens

In the case of `CCCCCCC[C@@H](C/C=C/CCC(=O)N(C)C/C(=C/Cl)C/C(=C\C(=O)N1CC(OC)=CC1=O)OC)OC`, the AC50 [1] is reported as 4.12 µM (active), the IC50 (cells [2]) is reported as > 67.5 µM (inactive) and the IC50 [3] is reported as > 0.278 µM (active).

In the case of `CCNC(=O)NC(=O)COC(=O)c1ccccc1SCC(=O)NC(=O)NCC`, the IC50 [4] is reported as 0.969 µM (active).

For `COc1cccc(NC(=O)[C@H](NC(=O)[C@@H]2Cc3ccccc3CN2)c2ccccc2)c1`, the IC50 (cells [2]) was > 67.5 µM (inactive) and the IC50 [3] was > 67.5 µM (inactive).

With `O=C1CCN(CCc2ccccc2)CCN1[C@H](COc1ccccc1)c1ccccc1` the AC50 (Vero) was 21.8 µM (active).

With `CCOc1ccc(NC(=O)COC(=O)COc2cccc3c2OC(C)(C)C3)cc1` the IC50 [5] was 35.9 µM (inactive), the IC50 [6] was 15.5 µM (inactive) and the IC50 (Steroidogenic factor 1) was 2.55 µM (active).

With `C=CCNc1nc(Nc2ccc(-c3nc4ccccc4o3)cc2)nc(N2CCOCC2)n1` the CC50 [7] was 27.3 µM (active), the IC50 [4] was 0.213 µM (active) and the EC50 [8] was 43.5 µM (active).

For `CC(C)(Oc1ccc(Cl)cc1)C(=O)OCC(=O)NCCc1ccccc1`, the IC50 [5] was 35.9 µM (inactive), the IC50 [6] was 5.98 µM (active) and the IC50 (Steroidogenic factor 1) was 6.16 µM (active).

For `O=C1NC(=S)N/C1=C/c1cccc([N+](=O)[O-])c1O`, the AC50 (Cytochrome P450 2C9) was 12.6 µM (inconclusive) and the IC50 [9] was 37.4 µM (inactive).

In the case of `CC(NCC#Cc1ccccc1)C(O)c1ccccc1` (centres undefined), the IC50 (Galanin receptor type 3) is reported as > 29.9 µM (inactive) and the EC50 (cells [10]) is reported as > 29.9 µM (inactive).

In the case of `CCN(CC)S(=O)(=O)c1cc(NC(=O)CNc2cccc(S(=O)(=O)N3CCOCC3)c2)ccc1C`, the AC50 [11] is reported as 2.17 µM (active), the IC50 (Galanin receptor type 3) is reported as 0.449 µM (active) and the AC50 [12] is reported as 2.97 µM (active). The AC50 [13] was 1.89 µM (active) and the EC50 (cells [10]) was > 29.9 µM (inactive).

For `COc1ccc(S(=O)(=O)N2CCCCC2)cc1N=C(S)Nc1ccccc1`, the IC50 [14] was 1.22 µM (active).

With `NC(=O)CCCn1c(C(=O)c2cc(Cl)c(N)c(Cl)c2)c2ccc(C(F)(F)F)cc2[n+]1[O-]` the IC50 [15] was 4.22 µM (active), the IC50 [16] was 4.47 µM (active) and the AC50 (CAAX prenyl protease 2) was 3.5 µM (active). For the same compound, the IC50 [17] was > 20 µM (inactive).

For `CCC(C)NC(=O)c1ccc2c(c1)N(Cc1ccccc1)C(=O)CS2` (centres undefined), the IC50 [5] was 35.9 µM (inactive), the IC50 [6] was 16.3 µM (inactive) and the IC50 (Steroidogenic factor 1) was 5.68 µM (active).

In the case of `CCNc1cc(Cl)nc(SC)n1`, the IC50 [15] is reported as 1.79 µM (active) and the IC50 [16] is reported as 4.88 µM (active).

With `CCOC(=O)CC[C@H](NC(=O)Cn1cnc2c(OCc3ccccc3)ncnc21)C(=O)OCC` the AC50 (Vero) was 36 µM (active).

For `COc1ccc(NC(=O)c2sc(=O)n(Cc3cccc(C(F)(F)F)c3)c2C)cc1OC`, the IC50 [14] was 13.9 µM (inactive).

For `C/C=C/C1=CC(=O)C(O)C1O` (centres undefined), the GI50 (P388/ADR) was 17.9 µM (inactive), the GI50 (P388) was 15 µM (inactive) and the GI50 (SN12K1) was 28.1 µM (inactive).

For `O=C1c2ccccc2/C(=C\c2ccc(Br)nc2)N1c1ccccc1`, the AC50 (Vero) was 38.8 µM (active).

In the case of `O=c1oc2ccccc2cc1-c1ccccc1`, the IC50 [4] is reported as 2.78 µM (active).

For `CNC(=O)[C@H]1O[C@@H](n2cnc3c(NCc4cccc(I)c4)ncnc32)[C@H](O)[C@@H]1O` [IB-MECA], the IC50 [15] was 1.83 µM (active) and the IC50 [16] was 2.37 µM (active).
